ChEMBL document CHEMBL1759970, “Design, synthesis and SAR of novel ethylenediamine and phenylenediamine derivatives as factor Xa inhibitors” (Bioorg Med Chem Lett, 2011)
In brackets after ≈: the same amount, converted by molar mass.

Legend:
[1] = physchem; conditions: buffer, pH 1.2
Description: Solubility of compound at pH 1.2

[2] = physchem; conditions: buffer, pH 6.8
Description: Solubility of compound at pH 6.8

Row | SMILES | solubility [1] [µg/mL] | solubility [2] [µg/mL]
1 | CC(Oc1ccc(NC(=O)c2cc3cc(Cl)ccc3[nH]2)c(NC(=O)c2nc3c(s2)CN(C)CC3)c1)C(=O)O (centres undefined) | 256 (≈ 462 µM) | 825 (≈ 1490 µM)
2 | CCOC(=O)c1ccc(NC(=O)c2nc3c(s2)CN(C)CC3)c(NC(=O)c2cc3cc(Cl)ccc3[nH]2)c1 | 1.1 (≈ 2.04 µM) | < 1
